Measured values: patent US12655116B2, “Substituted isophthalic acid diamides” (Bayer Aktiengesellschaft, priority 2020, dated 2026)

Legend:
ECHCG [1] = experiment: Pre-emergence herbicidal action against ECHCG; type: in vivo, Echinochloa crus-galli
Method in brief: (§1)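 Visual rating at 3 weeks vs untreated pots; 0–100% scale, 100% = plants died. Treatment: aqueous WP/EC spray onto covering soil, 600–800 l/ha, 0.2% wetter, seeds in sandy loam.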

ALOMY [2] = experiment: Post-emergence herbicidal action against ALOMY; type: in vivo, Alopecurus myosuroides; conditions: visual assessment about 3 weeks after treatment vs untreated controls
Method in brief: (§2)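 Greenhouse pot plants in sandy loam were sprayed at the one-leaf stage, 2 to 3 weeks after sowing, with WP or EC formulations as aqueous suspension or emulsion (600 to 800 l/ha water, 0.2% wetting agent). About 3 weeks later, damage was scored visually against untreated controls as % action (100% = dead, 0% = like control).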

SETVI [3] = experiment: Pre-emergence herbicidal action against SETVI; type: in vivo, Setaria viridis
Method in brief: as §1

ECHCG [4] = experiment: Post-emergence herbicidal action against ECHCG; type: in vivo, Echinochloa crus-galli
Method in brief: as §2

PHBPU [5] = experiment: Pre-emergence herbicidal action against PHBPU; type: in vivo, Pharbitis purpurea
Text: Seeds of monocotyledonous and dicotyledonous weed plants and crop plants are laid out in sandy loam soil in wood-fiber pots and covered with soil. The compounds of the invention, formulated in the form of wettable powders (WP) or as emulsion concentrates (EC), are then applied to the surface of the covering soil in the form of an aqueous suspension or emulsion at a water application rate equivalent to 600 to 800 l/ha, with addition of 0.2% wetting agent. After the treatment, the pots are placed in a greenhouse and kept under good growth conditions for the trial plants. The damage to the test plants is scored visually after a test period of 3 weeks by comparison with untreated controls (herbicidal activity in percent (%): 100% activity=the plants have died, 0% activity=like control plants). […] The tables below illustrate, in an illustrative manner, the post-emergence herbicidal action of the compounds of the invention, the herbicidal activity being stated in percent.

SETVI [6] = experiment: Post-emergence herbicidal action against SETVI; type: in vivo, Setaria viridis
Method in brief: as §2

AMARE [7] = experiment: Pre-emergence herbicidal action against AMARE; type: in vivo, Amaranthus retroflexus
Method in brief: as §1

ABUTH [8] = experiment: Post-emergence herbicidal action against ABUTH; type: in vivo, Abutilon theophrasti; conditions: visual assessment about 3 weeks after treatment vs untreated controls
Method in brief: as §2

MATIN [9] = experiment: Pre-emergence herbicidal action against MATIN; type: in vivo, Matricaria inodora
Method in brief: as §1

ALOMY [10] = experiment: Pre-emergence herbicidal action against ALOMY; type: in vivo, Alopecurus myosuroides; conditions: for Pre-emergence action against ALOMY (herbicidal activity): 80 g/ha, scored visually after 3 weeks vs untreated controls (100% = plants have died, 0% = like control plants)
Method in brief: as §1

ABUTH [11] = experiment: Pre-emergence herbicidal action against ABUTH; type: in vivo, Abutilon theophrasti; conditions: for Pre-emergence action against ABUTH (herbicidal activity): 80 g/ha, scored visually after 3 weeks vs untreated controls (100% = plants have died, 0% = like control plants); for Pre-emergence action against ABUTH (herbicidal activity in percent): dosage 20 g/ha, scored visually after 3 weeks vs untreated controls, 100% = plants have died, 0% = like control plants
Method in brief: as §1

AMARE [12] = experiment: Post-emergence herbicidal action against AMARE; type: in vivo, Amaranthus retroflexus; conditions: 20 g/ha, visual assessment about 3 weeks after treatment, 100% = plants have died, 0% = like control plants
Method in brief: as §2

VERPE = experiment: Pre-emergence herbicidal action against VERPE; type: in vivo, Veronica persica
Method in brief: as §1

VIOTR [13] = experiment: Post-emergence herbicidal action against VIOTR; type: in vivo, Viola tricolor
Method in brief: as §2

AVEFA = experiment: Pre-emergence herbicidal action against AVEFA; type: in vivo, Avena fatua; conditions: 80 g/ha, pre-emergence
Method in brief: as §1

PHBPU [14] = experiment: Post-emergence herbicidal action against PHBPU; type: in vivo, Pharbitis purpurea; conditions: dosage 20 g/ha
Method in brief: as §2

DIGSA [15] = experiment: Post-emergence herbicidal action against DIGSA; type: in vivo, Digitaria sanguinalis; conditions: for Post-emergence action against DIGSA in %: 5 g/ha; for Post-emergence action against DIGSA: 20 g/ha
Method in brief: as §2

DIGSA [16] = experiment: Pre-emergence herbicidal action against DIGSA; type: in vivo, Digitaria sanguinalis
Method in brief: as §1

MATIN [17] = experiment: Post-emergence herbicidal action against MATIN; type: in vivo, Matricaria inodora
Method in brief: as §2

VIOTR [18] = experiment: Pre-emergence herbicidal action against VIOTR; type: in vivo, Viola tricolor
Method in brief: as §1

[19] = 20 g/ha, scored visually after 3 weeks vs untreated controls, 100% = plants have died, 0% = like control plants
[20] = 80 g/ha, scored visually after 3 weeks vs untreated controls (100% = plants have died, 0% = like control plants)

Row | SMILES | Pre-emergence action against ECHCG in % (ECHCG [1]; 80 g/ha) | Post-emergence action against ALOMY in % (ALOMY [2]; dosage 20 g/ha) | Pre-emergence action against SETVI in % (SETVI [3]; dosage 80 g/ha) | Post-emergence action against ECHCG in % (ECHCG [4]; dosage 20 g/ha) | Pre-emergence action against PHBPU in % (PHBPU [5]; dosage 80 g/ha) | Post-emergence action against SETVI in % (SETVI [6]; dosage 20 g/ha) | Pre-emergence action against AMARE in % (AMARE [7]; [19]) | Pre-emergence action against AMARE in % (AMARE [7]; [20]) | Post-emergence action against ABUTH in % (ABUTH [8]; dosage 5 g/ha) | Post-emergence action against ABUTH in % (ABUTH [8]; dosage 20 g/ha) | Pre-emergence action against MATIN in % (MATIN [9]; dosage 80 g/ha) | Pre-emergence action against ALOMY (herbicidal activity) (ALOMY [10]) | Pre-emergence action against ABUTH (herbicidal activity) (ABUTH [11]) | Pre-emergence action against ABUTH (herbicidal activity in percent) (ABUTH [11]) | Post-emergence action at 20 g/ha against AMARE in % (AMARE [12]) | Pre-emergence action against AVEFA in % (AVEFA) | Post-emergence action against PHBPU in % (PHBPU [14]) | Pre-emergence action against MATIN in % (MATIN [9]; dosage 20 g/ha) | Pre-emergence action against DIGSA in % (DIGSA [16]; dosage 80 g/ha) | Pre-emergence action against VIOTR in % (VIOTR [18]; dosage 80 g/ha) | other results
1 | COCCNC(=O)c1c(Br)ccc(C(=O)Nc2nnnn2C)c1Cl [Example 1-186] | 80% | 90% | 80% | 90% | 80% | 80% | 80% | 100% | 90% | 90% | 90% | 90% | 100% | 100% | 100% |  |  |  |  |  | Post-emergence action against ALOMY in % (ALOMY [2]; dosage 5 g/ha): 80%
2 | Cn1nnnc1NC(=O)c1ccc(C(F)(F)F)c(C(=O)NCC2CC2)c1Br [Example 1-210] | 100% | 100% | 100% | 80% | 80% | 90% | 100% | 100% | 80% | 90% | 100% | 80% | 100% | 100% |  | 90% | 100% | 100% | 100% | 100% | Pre-emergence action against ECHCG in % (ECHCG [1]; 20 g/ha): 80%; Pre-emergence action against VERPE in % (VERPE; dosage 80 g/ha): 80%; Post-emergence action against ALOMY in % (ALOMY [2]; dosage 5 g/ha): 80%; Post-emergence action against VIOTR in % (VIOTR [13]; 20 g/ha): 90%; Post-emergence action against SETVI in % (SETVI [6]; dosage 5 g/ha): 80%; Post-emergence action against DIGSA in % (DIGSA [15]): 80%; Post-emergence action against DIGSA (DIGSA [15]): 90%; Pre-emergence action against DIGSA in % (DIGSA [16]; dosage 20 g/ha): 100%; Post-emergence action against MATIN in % (MATIN [17]; dosage 5 g/ha): 80%; Post-emergence action against MATIN in % (MATIN [17]; dosage 20 g/ha): 90%; Pre-emergence action against VIOTR in % (VIOTR [18]; dosage 20 g/ha): 100%
3 | CCn1nnnc1NC(=O)c1ccc(Br)c(C(=O)NCC(F)(F)F)c1Cl [Example 2-181] | 100% | 90% | 100% | 90% | 80% | 90% | 100% | 100% |  |  | 100% | 80% | 100% | 100% |  | 90% | 90% | 90% | 100% | 80% | Pre-emergence action against VERPE in % (VERPE; dosage 80 g/ha): 100%; Post-emergence action against MATIN in % (MATIN [17]; dosage 5 g/ha): 80%; Post-emergence action against MATIN in % (MATIN [17]; dosage 20 g/ha): 90%
4 | CCn1nnnc1NC(=O)c1ccc(Br)c(C(=O)NC(C)C)c1Cl [Example 2-185] | 90% | 90% | 100% | 100% | 100% | 80% | 100% | 100% | 90% | 100% | 100% | 90% | 100% | 100% | 100% | 100% |  | 100% |  | 100% | Post-emergence action against VIOTR in % (VIOTR [13]; 5 g/ha): 100%; Post-emergence action against VIOTR in % (VIOTR [13]; 20 g/ha): 100%; Post-emergence action against MATIN in % (MATIN [17]; dosage 5 g/ha): 80%; Post-emergence action against MATIN in % (MATIN [17]; dosage 20 g/ha): 90%; Pre-emergence action against VIOTR in % (VIOTR [18]; dosage 20 g/ha): 80%
5 | CCn1nnnc1NC(=O)c1ccc(C(F)(F)F)c(C(=O)NCC2CC2)c1Br [Example 2-210] | 100% | 90% | 100% | 90% | 90% | 80% | 100% | 100% | 80% | 80% | 100% | 100% | 100% | 100% | 100% | 90% | 90% | 100% | 100% | 100% | Pre-emergence action against ECHCG in % (ECHCG [1]; 20 g/ha): 80%; Post-emergence action against VIOTR in % (VIOTR [13]; 20 g/ha): 90%; Pre-emergence action against PHBPU in % (PHBPU [5]; dosage 20 g/ha): 80%; Post-emergence action against DIGSA in % (DIGSA [15]): 80%; Post-emergence action against DIGSA (DIGSA [15]): 90%; Pre-emergence action against DIGSA in % (DIGSA [16]; dosage 20 g/ha): 100%; Post-emergence action against MATIN in % (MATIN [17]; dosage 20 g/ha): 90%; Pre-emergence action against VIOTR in % (VIOTR [18]; dosage 20 g/ha): 100%
6 | Cc1nnc(NC(=O)c2ccc(C(F)(F)F)c(C(=O)NC3CCC3)c2C)o1 [Example 6-256] | 100% |  | 100% | 90% | 80% |  | 90% | 100% | 80% | 90% | 90% | 90% | 100% |  | 90% | 80% | 90% |  | 100% | 90% | Pre-emergence action against ECHCG in % (ECHCG [1]; 20 g/ha): 80%; Pre-emergence action against VERPE in % (VERPE; dosage 20 g/ha): 80%; Pre-emergence action against VERPE in % (VERPE; dosage 80 g/ha): 80%; Pre-emergence action against SETVI in % (SETVI [3]; dosage 20 g/ha): 80%; Post-emergence action against ECHCG in % (ECHCG [4]; dosage 5 g/ha): 90%; Post-emergence action against DIGSA in % (DIGSA [15]): 80%; Post-emergence action against DIGSA (DIGSA [15]): 90%; Pre-emergence action against DIGSA in % (DIGSA [16]; dosage 20 g/ha): 90%; Pre-emergence action against ALOMY (ALOMY [10]; 20 g/ha, scored visually after 3 weeks, 100% = plants have died, 0% = like control plants): 80%; Pre-emergence action against VIOTR in % (VIOTR [18]; dosage 20 g/ha): 90%
